Several values for one entry are separate records, joined by “and”; a condition that tells them apart may be missing. Identical values can stand only once. Like-named read-outs stand apart in the source and are kept apart here.
Assay: Plasma pharmacokinetics after intraperitoneal injection in mouse (UPLC-MS/MS)
Format: in vivo
Details: for concentration at 5 min / concentration at 0.167 h / concentration at 0.25 h / concentration at 0.5 h / concentration at 1 h / concentration at 2 h / concentration at 4 h / concentration at 8 h / half-life / MRT / AUC(0-inf) / Cmax / Tmax / AUC(0-t) / MRT inf / concentration at 6 h: male, ICR; for concentration at 5 min / concentration at 0.167 h / concentration at 0.25 h / concentration at 0.5 h / concentration at 1 h / concentration at 2 h / concentration at 4 h / concentration at 8 h / half-life / MRT / concentration at 6 h: plasma; for concentration at 5 min / concentration at 0.167 h / concentration at 0.25 h / concentration at 0.5 h / concentration at 1 h / concentration at 2 h / concentration at 4 h / concentration at 8 h / concentration at 6 h: ip; for MRT: read-out: mean residence time (MRT)(0-t); for AUC(0-inf) / Cmax / Tmax / AUC(0-t) / MRT inf / AUClast/D / AUC—% Extrap—obs / T1/2: mouse plasma, prototype drug; for AUC(0-t): read-out: AUClast; for MRT inf: read-out: MRTInf—obs
Description: Positive control drug 4-butyl-α-agarofuran preparation (BAF) and Compound 2 preparation were administered intraperitoneally at a dose of 10 mg/kg/10 ml (calculated according to the crude drug), and a suspension was prepared by ultrasonic grinding with double distilled water. Male ICR mice, with a weight of 21-24 g, were purchased from SPF (Beijing) Biotechnology Co., Ltd.
12 mice were randomly divided into 4 groups, there were 3 parallel cross blood sampling points in each group (5 points in groups 1 and 3, and 6 points in groups 2 and 4), it was administered according to the weight, and blood was collected from the orbital venous plexus at 5 min, 10 min, […], 30 min, 1 h, 2 h, 4 h, 6 h, 8 h, 12 h, and 24 h after administration. The bloods at each time point were collected into Eppendorf (EP) tubes anticoagulated with heparin, and placed on ice and centrifuged at 8000 r/min×5 min, to separate plasma for later use.
20 μl of mouse blank plasma was taken, 55 μl of acetonitrile containing an internal standard solution (200 ng/mL, BAF crude drug and Compound 2 crude drug are mutual internal standards, namely BAF was used as the internal standard of Compound 2, and Compound 2 was used as the internal standard of BAF, similarly hereinafter) is added, 5 μl of a methanol working solution of the compound BAF or Compound 2 with different concentrations was respectively added and mixed uniformly, so that its final plasma concentrations were 0.2, 0.5, 2, 5, 10, 25, 50, 100, 200, 500, 750, and 1000 ng/ml respectively, centrifugation was conducted twice at a high speed of 13000 r/min×5 min, and 5 μl of a supernatant was taken for UPLC-MS/MS analysis.
10 μL of plasma was taken, 30 μL of acetonitrile containing internal standard solution (100 ng/mL) was added to precipitate proteins, after the material was centrifuged twice at a high speed of 13000 r/min×5 min, 5 μl of a supernatant was taken for UPLC-MS/MS analysis.
Chromatographic column: Symmetry C8 (2.1 mm×50 mm, 3.5 μm), column temperature: 25° C., mobile phase: acetonitrile (0.1% formic acid): water (0.1% formic acid)=70:30 gradient elution, flow rate: 0.2 mL/min, Parallel Reaction Monitoring (PRM) detection, BAF: m/z 263.2→245.2; and Compound 2: m/z 317.2→299.2.

[1] = mouse, 10 mg/kg, IP 10 mg/kg, 5 min, read-out: Plasma concentration, Mean
[2] = mouse, 10 mg/kg, IP 10 mg/kg, 0.167 h, read-out: Plasma concentration, Mean
[3] = mouse, 10 mg/kg, IP 10 mg/kg, 0.167 h, read-out: Plasma concentration, individual mice 1-3
[4] = mouse, 10 mg/kg, IP 10 mg/kg, 0.25 h, read-out: Plasma concentration, Mean
[5] = mouse, 10 mg/kg, IP 10 mg/kg, 0.5 h, read-out: Plasma concentration, Mean
[6] = mouse, 10 mg/kg, IP 10 mg/kg, 0.5 h, read-out: Plasma concentration, individual mice 1-3
[7] = mouse, 10 mg/kg, IP 10 mg/kg, 1 h, read-out: Plasma concentration, Mean
[8] = mouse, 10 mg/kg, IP 10 mg/kg, 2 h, read-out: Plasma concentration, Mean
[9] = mouse, 10 mg/kg, IP 10 mg/kg, 2 h, read-out: Plasma concentration, individual mice 1-3
[10] = mouse, 10 mg/kg, IP 10 mg/kg, 4 h, read-out: Plasma concentration, Mean
[11] = mouse, 10 mg/kg, IP 10 mg/kg, 8 h, read-out: Plasma concentration, individual mice 1-3

**Q.** Which results are given for `CCCCC1=CCC[C@@]2(C)CC[C@@H]3C[C@]12OC3(C)C` [BAF, 4-butyl-α-agarofuran, reference compound]?
**A.** Plasma concentration, individual mice 1-3 (IP 10 mg/kg, 5 min, 10 mg/kg): 413 ng/mL and 295 ng/mL and 194 ng/mL; Plasma concentration, individual mice 1-3 (IP 10 mg/kg, 0.167 h, 10 mg/kg): 133 ng/mL and 204 ng/mL; Plasma concentration, individual mice 1-3 (IP 10 mg/kg, 0.25 h, 10 mg/kg): 364 ng/mL and 132 ng/mL and 91.8 ng/mL; Plasma concentration, individual mice 1-3 (IP 10 mg/kg, 0.5 h, 10 mg/kg): 45.2 ng/mL and 38.9 ng/mL; Plasma concentration, individual mice 1-3 (IP 10 mg/kg, 1 h, 10 mg/kg): 54.6 ng/mL and 22.2 ng/mL and 24.4 ng/mL; Plasma concentration, individual mice 1-3 (IP 10 mg/kg, 2 h, 10 mg/kg): 6.91 ng/mL and 6.54 ng/mL; Plasma concentration, individual mice 1-3 (IP 10 mg/kg, 4 h, 10 mg/kg): 11.3 ng/mL and 2.09 ng/mL and 2.90 ng/mL; Plasma concentration, individual mice 1-3 (IP 10 mg/kg, 6 h): BLOQ; Plasma concentration, individual mice 1-3 (IP 10 mg/kg, 8 h, 10 mg/kg): BLOQ; Plasma concentration, individual mice 1-3 (IP 10 mg/kg, 12 h): BLOQ; Plasma concentration, individual mice 1-3 (IP 10 mg/kg, 24 h): BLOQ; concentration at 5 min [1]: 301 ng/mL; concentration at 0.167 h [2]: 179 ng/mL; concentration at 0.167 h [3]: 201 ng/mL; concentration at 0.25 h [4]: 196 ng/mL; concentration at 0.5 h [5]: 42 ng/mL; concentration at 0.5 h [6]: 41.9 ng/mL; concentration at 1 h [7]: 33.7 ng/mL; concentration at 2 h [8]: 6.52 ng/mL; concentration at 2 h [9]: 6.1 ng/mL; concentration at 4 h [10]: 5.4 ng/mL; concentration at 8 h [11]: 4.03 ng/mL; half-life (mouse, IP 10 mg/kg): 1.29 h; MRT (mouse, IP 10 mg/kg): 1.05 h; AUC(0-inf) (IP 10 mg/kg): 139 ng·h/mL; Cmax (IP 10 mg/kg): 301 ng/mL; Tmax (IP 10 mg/kg): 5 min; AUC(0-t) (IP 10 mg/kg): 129 ng·h/mL; MRT inf (IP 10 mg/kg): 1.05 h; AUClast/D (IP 10 mg/kg): 12.9 kg·ng·h/mL/mg; AUC—% Extrap—obs (IP 10 mg/kg): 7.24%; T1/2 (IP 10 mg/kg): 1.29 h

**Q.** Which “Plasma concentration, individual mice 1-3” value (from here on “Plasma concentration”) (IP 10 mg/kg, 5 min, 10 mg/kg) does the source give for `CC1(C)O[C@]23C[C@H]1CC[C@]2(C)CCC=C3CCCC(F)(F)F` [Compound 2, (1R,6S,9R)6,10,10-trimethyl-2-(4,4,4-trifluorobutyl)-11-oxatricyclo [7.2.1.0^1,6]dodec-2-ene] here?
**A.** 407 ng/mL and 585 ng/mL

**Q.** What about the “Plasma concentration” value (IP 10 mg/kg, 0.167 h, 10 mg/kg) of the same compound?
**A.** 198 ng/mL and 214 ng/mL

**Q.** And the “Plasma concentration” value (IP 10 mg/kg, 0.25 h, 10 mg/kg)?
**A.** 201 ng/mL and 196 ng/mL

**Q.** And the “Plasma concentration” value (IP 10 mg/kg, 0.5 h, 10 mg/kg)?
**A.** 59.8 ng/mL and 67.5 ng/mL

**Q.** What about the “Plasma concentration” value (IP 10 mg/kg, 1 h, 10 mg/kg) of the same compound?
**A.** 41.2 ng/mL and 32.1 ng/mL

**Q.** What about the “Plasma concentration” value (IP 10 mg/kg, 2 h, 10 mg/kg) of the same compound?
**A.** 17.9 ng/mL and 22.3 ng/mL

**Q.** What about the “Plasma concentration” value (IP 10 mg/kg, 4 h, 10 mg/kg) of the same compound?
**A.** 8.03 ng/mL and 6.56 ng/mL

**Q.** What about the “Plasma concentration” value (IP 10 mg/kg, 6 h, 10 mg/kg) of the same compound?
**A.** 3.20 ng/mL and 3.79 ng/mL

**Q.** What about the “Plasma concentration” value (IP 10 mg/kg, 8 h, 10 mg/kg) of the same compound?
**A.** BLOQ

**Q.** What about the “Plasma concentration” value (IP 10 mg/kg, 12 h) of the same compound?
**A.** BLOQ

**Q.** And the “Plasma concentration” value (IP 10 mg/kg, 24 h)?
**A.** BLOQ

**Q.** What about the concentration at 5 min [1] of the same compound?
**A.** 450 ng/mL

**Q.** What about the concentration at 5 min (mouse, 10 mg/kg, IP 10 mg/kg, 5 min, read-out: Plasma concentration, individual mice 1-3) of the same compound?
**A.** 359 ng/mL

**Q.** What about the concentration at 0.167 h [2] of the same compound?
**A.** 251 ng/mL

**Q.** What about the concentration at 0.167 h [3] of the same compound?
**A.** 341 ng/mL

**Q.** What about the concentration at 0.25 h [4] of the same compound?
**A.** 195 ng/mL

**Q.** And the concentration at 0.25 h (mouse, 10 mg/kg, IP 10 mg/kg, 0.25 h, read-out: Plasma concentration, individual mice 1-3)?
**A.** 188 ng/mL

**Q.** And the concentration at 0.5 h [5]?
**A.** 69.5 ng/mL

**Q.** And the concentration at 0.5 h [6]?
**A.** 81.1 ng/mL

**Q.** What about the concentration at 1 h [7] of the same compound?
**A.** 32.5 ng/mL

**Q.** And the concentration at 1 h (mouse, 10 mg/kg, IP 10 mg/kg, 1 h, read-out: Plasma concentration, individual mice 1-3)?
**A.** 24.3 ng/mL

**Q.** And the concentration at 2 h [8]?
**A.** 20 ng/mL

**Q.** What about the concentration at 2 h [9] of the same compound?
**A.** 19.7 ng/mL

**Q.** And the concentration at 4 h [10]?
**A.** 7.45 ng/mL

**Q.** What about the concentration at 4 h (mouse, 10 mg/kg, IP 10 mg/kg, 4 h, read-out: Plasma concentration, individual mice 1-3) of the same compound?
**A.** 7.77 ng/mL

**Q.** And the concentration at 6 h (mouse, 10 mg/kg, IP 10 mg/kg, 6 h, read-out: Plasma concentration, Mean)?
**A.** 3.56 ng/mL

**Q.** And the concentration at 6 h (mouse, 10 mg/kg, IP 10 mg/kg, 6 h, read-out: Plasma concentration, individual mice 1-3)?
**A.** 3.69 ng/mL

**Q.** And the concentration at 8 h [11]?
**A.** 3.17 ng/mL

**Q.** And the half-life (mouse, IP 10 mg/kg)?
**A.** 1.61 h

**Q.** And the MRT (mouse, IP 10 mg/kg)?
**A.** 1.32 h

**Q.** What about the AUC(0-inf) (IP 10 mg/kg) of the same compound?
**A.** 198 ng·h/mL

**Q.** And the Cmax (IP 10 mg/kg)?
**A.** 450 ng/mL

**Q.** What about the Tmax (IP 10 mg/kg) of the same compound?
**A.** 5 min

**Q.** And the AUC(0-t) (IP 10 mg/kg)?
**A.** 190 ng·h/mL

**Q.** And the MRT inf (IP 10 mg/kg)?
**A.** 1.32 h

**Q.** What about the AUClast/D (IP 10 mg/kg) of the same compound?
**A.** 19 kg·ng·h/mL/mg

**Q.** What about the “AUC—% Extrap—obs” value (IP 10 mg/kg) of the same compound?
**A.** 4.16%

**Q.** What about the T1/2 (IP 10 mg/kg) of the same compound?
**A.** 1.61 h

**Q.** What about the “Pharmacokinetic properties compared with BAF” value (mouse, IP) of the same compound?
**A.** better pharmacokinetic properties

**Q.** And the “AUC(0-t) as percentage of BAF” value (mouse, IP 10 mg/kg)?
**A.** 142%

**Q.** What about the “Cmax as percentage of BAF” value (mouse, IP 10 mg/kg) of the same compound?
**A.** 150%
